We go through 20 compounds from patent publication US7709516B2, “Helix 12 directed non-steroidal antiandrogens” (Endorecherche, Inc., priority 2005, dated 2010).

SMILES strings stand for the structures. Read-outs that look alike come from different tables or passages of the source.

What is called IC50 is the concentration that inhibits the measured activity by half.

Experiment [1] has as its system rat prostate, seminal vesicle, levator ani muscle. Description: Systemic antiandrogenic activity in orchidectomized immature male rats with DHT implant. Format: in vivo. The conditions noted are these: Rattus norvegicus, 168 h, rat +DHT, 0.5 mg/animal daily 7 days.
For experiment [2], the system named is Shionogi mouse mammary carcinoma cells. Kind of experiment: Androgenic/antiandrogenic activity: inhibition of DHT-stimulated Shionogi cell number. It counts as cell-based. The conditions noted are these: Mus musculus, DHT-stimulated Shionogi cell number.
The target of the next experiment is T1, Human Androgen Receptor (Homo sapiens, UniProt P10275).
T1 sequence (P10275 1-920): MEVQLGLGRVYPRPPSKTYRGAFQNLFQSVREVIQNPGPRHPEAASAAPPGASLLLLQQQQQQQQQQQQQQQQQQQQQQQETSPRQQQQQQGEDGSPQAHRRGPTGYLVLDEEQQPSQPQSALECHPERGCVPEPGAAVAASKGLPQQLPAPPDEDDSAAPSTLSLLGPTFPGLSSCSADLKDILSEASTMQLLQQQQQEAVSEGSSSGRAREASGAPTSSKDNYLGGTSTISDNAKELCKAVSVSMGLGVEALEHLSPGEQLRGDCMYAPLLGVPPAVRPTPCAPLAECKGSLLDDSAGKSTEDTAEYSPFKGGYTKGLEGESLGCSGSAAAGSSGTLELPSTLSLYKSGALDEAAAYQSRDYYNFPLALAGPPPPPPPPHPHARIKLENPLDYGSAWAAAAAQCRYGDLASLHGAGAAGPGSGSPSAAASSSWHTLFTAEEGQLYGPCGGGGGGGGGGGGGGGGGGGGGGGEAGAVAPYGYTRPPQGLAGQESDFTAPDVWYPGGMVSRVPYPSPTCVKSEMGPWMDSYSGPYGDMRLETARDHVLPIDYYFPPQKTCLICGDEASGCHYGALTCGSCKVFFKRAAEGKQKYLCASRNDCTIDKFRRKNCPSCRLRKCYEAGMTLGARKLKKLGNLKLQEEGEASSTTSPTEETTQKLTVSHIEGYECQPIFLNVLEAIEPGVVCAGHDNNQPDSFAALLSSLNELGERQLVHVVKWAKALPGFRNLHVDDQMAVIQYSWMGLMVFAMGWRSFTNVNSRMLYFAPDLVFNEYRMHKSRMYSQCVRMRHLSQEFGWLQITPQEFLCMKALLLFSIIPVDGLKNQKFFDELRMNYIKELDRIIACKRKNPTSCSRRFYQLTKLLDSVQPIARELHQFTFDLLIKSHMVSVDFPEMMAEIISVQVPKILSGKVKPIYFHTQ
Kind of experiment: Androgen receptor binding assay ([3H]R1881, HAP) in cytosol of HEK-293 cells transfected with hAR. The conditions noted are these: relative to R1881 = 100, transfected cells.

Where [3] appears, read: read-out: Lev Ani % inhibition, Table 1, s.c. or p.o. (route not marked), levator ani.
The mark [4] stands for this setting: read-out: Prostate % inhibition, Table 1, s.c. or p.o. (route not marked in cell).
[5] abbreviates: read-out: SV % inhibition, Table 1, s.c. or p.o. (route not marked), seminal vesicle.
[6] abbreviates: read-out: Shionogi Antiandrogenic Activity IC50, Table 1.
[7] abbreviates: read-out: Lev Ani % inhibition, Table 2, s.c. or p.o. (route not marked), levator ani.
Where [8] appears, read: read-out: Prostate % inhibition, Table 2, s.c. or p.o. (route not marked).
[9] abbreviates: read-out: SV % inhibition, Table 2, s.c. or p.o. (route not marked), seminal vesicle.
[10] abbreviates: read-out: Shionogi Antiandrogenic Activity IC50, Table 2.
Setting [11] is: Prostate cell, po, read-out: Lev Ani % inhibition, Table 1, p.o, levator ani.
Where [12] appears, read: Prostate cell, po, read-out: SV % inhibition, Table 1, p.o, seminal vesicle.
Setting [13] is: po, read-out: Prostate % inhibition, Table 1, p.o.

For the compound `CN(C)Cc1ccc(OCCCN2C(=S)N(c3ccc(C#N)c(C(F)(F)F)c3)C(=O)C2(C)C)cn1` [EM-7927], the values for the inhibition in vivo at 0.5 mg in experiment [1] (setting [3]), in experiment [1] (setting [4]) and in experiment [1] (setting [5]) were 61%, 32% and 55%, respectively. The 50% inhibitory concentration (IC50) in experiment [2] (setting [6]) is 6.9 nM. For the same compound, the “Human Androgen Receptor Binding (%) RBA R1881 = 100” value on Human Androgen Receptor (Table 1) is reported as 2.4%.
Consider `COc1cc(CNC(C)C)ccc1OCCCN1C(=S)N(c2ccc(C#N)c(C(F)(F)F)c2)C(=O)C1(C)C` [EM-7930], for which the values for the inhibition in vivo at 0.5 mg in experiment [1] (setting [3]), in experiment [1] (setting [4]) and in experiment [1] (setting [5]) were 41%, 47% and 71%, respectively. For the same compound, in experiment [2] (setting [6]), the concentration for half-maximal inhibition (IC50) came to 9.5 nM. Moreover, at Human Androgen Receptor (Table 1), the “Human Androgen Receptor Binding (%) RBA R1881 = 100” value came to 0.5%.
The corresponding values for `CC(C)NS(=O)(=O)c1ccc(OCCCN2C(=S)N(c3ccc(C#N)c(C(F)(F)F)c3)C(=O)C2(C)C)cc1` [EM-7957] are 75%, 44%, 72%, 17.6 nM and 5.9%.
On to `CCC(c1ccc(OCCC2(O)CCN(c3ccc(C#N)c(C(F)(F)F)c3)CC2)c(C)c1)N1CCCC1` (stereo not shown) [EM-8003], for which the inhibition in vivo at 0.5 mg in experiment [1] (setting [7]) worked out at 44%; in experiment [1] (setting [8]), 11%; in experiment [1] (setting [9]) it was 35%. The IC50 in experiment [2] (setting [10]) amounted to 22.3 nM. Also, the “Human Androgen Receptor Binding (%) RBA R1881 = 100” value on Human Androgen Receptor (Table 2) stood at 6.4%.
For `CCC(CC)NC(CC)c1ccc(OCCC2(O)CCN(c3ccc(C#N)c(C(F)(F)F)c3)CC2)c(C)c1` (stereo not shown) [EM-8006], the inhibition in vivo at 0.5 mg stood at 40% in experiment [1] (setting [7]), 14% in experiment [1] (setting [8]) and 32% in experiment [1] (setting [9]). For the same compound, the IC50 in experiment [2] (setting [10]) came to 30.8 nM. Also, the “Human Androgen Receptor Binding (%) RBA R1881 = 100” value on Human Androgen Receptor (Table 2) stood at 8.1%.
`CC1(C)C(=O)N(c2ccc(C#N)c(C(F)(F)F)c2)C(=S)N1CCCOc1ccc(S(C)(=O)=O)cc1` [EM-8056]: the inhibition in vivo at 0.5 mg worked out at 80% in experiment [1] (setting [11]), 91% in experiment [1] (setting [12]) and 49% in experiment [1] (setting [13]). The IC50 in experiment [2] (setting [6]) is 12 nM. Further, the “Human Androgen Receptor Binding (%) RBA R1881 = 100” value at Human Androgen Receptor (Table 1) is recorded as 6.7%.
As for `N#Cc1ccc(N2CCC(O)(CCOc3ccc(-c4cccnc4)c(CN4CCCC4)c3)CC2)cc1C(F)(F)F` [EM-8058], the values for the inhibition in vivo at 0.5 mg in experiment [1] (setting [7]), in experiment [1] (setting [8]) and in experiment [1] (setting [9]) were 6%, 0% and 2%, respectively. Moreover, the IC50 in experiment [2] (setting [10]) was found to be 56.5 nM. The “Human Androgen Receptor Binding (%) RBA R1881 = 100” value on Human Androgen Receptor (Table 2) is on record as 1.5%.
The corresponding values for `N#Cc1ccc(N2CCC(O)(CCOc3cccc(CN4CCCC4)c3)CC2)cc1C(F)(F)F` [EM-8059] are 0%, 1%, 21%, 68.9 nM and 1.0%.
Consider `CC1(C)C(=O)N(c2ccc(C#N)c(C(F)(F)F)c2)C(=S)N1CCCOc1ccc(-n2ccnc2)cc1` [EM-8062], for which the results for the inhibition in vivo at 0.5 mg in experiment [1] (setting [11]), in experiment [1] (setting [12]) and in experiment [1] (setting [13]) were 63%, 79% and 37%, respectively. Moreover, in experiment [2] (setting [6]), the half-maximal inhibitory concentration (IC50) turned out to be 6.6 nM. Moreover, the “Human Androgen Receptor Binding (%) RBA R1881 = 100” value at Human Androgen Receptor (Table 1) is on record as 15.6%.
Consider `CCCC(c1ccc(OCCC2(O)CCN(c3ccc(C#N)c(C(F)(F)F)c3)CC2)cc1)N1CCCC1` (stereo not shown) [EM-8096], for which the results for the inhibition in vivo at 0.5 mg in experiment [1] (setting [7]), in experiment [1] (setting [8]) and in experiment [1] (setting [9]) were 50%, 8% and 55%, respectively. Besides, in experiment [2] (setting [10]), the IC50 amounted to 19.6 nM. Besides, the “Human Androgen Receptor Binding (%) RBA R1881 = 100” value on Human Androgen Receptor (Table 2) is given as 6.9%.
In the case of `CC(=O)Nc1ccc(OCCCN2C(=S)N(c3ccc(C#N)c(C(F)(F)F)c3)C(=O)C2(C)C)cc1` [EM-8101], the inhibition in vivo at 0.5 mg turned out to be 43% in experiment [1] (setting [11]), 41% in experiment [1] (setting [12]) and 8% in experiment [1] (setting [13]). The IC50 in experiment [2] (setting [6]) is 18.2 nM. For the same compound, the “Human Androgen Receptor Binding (%) RBA R1881 = 100” value at Human Androgen Receptor (Table 1) amounted to 12.1%.
The corresponding values for `CC1(C)C(=O)N(c2ccc(C#N)c(C(F)(F)F)c2)C(=S)N1CCCOc1ccc(S(=O)(=O)N2CCCC2)cc1` [EM-8103] are 16%, 37%, 18%, 41.5 nM and 29.3%.
As to `N#Cc1ccc(N2CCC(O)(CCOc3ccc(S(=O)(=O)N4CCCC4)cc3)CC2)cc1C(F)(F)F` [EM-8130], the figures for the inhibition in vivo at 0.5 mg in experiment [1] (setting [7]), in experiment [1] (setting [8]) and in experiment [1] (setting [9]) were 8%, 15% and 20%, respectively. In addition, the IC50 in experiment [2] (setting [10]) is 28.3 nM. Moreover, the “Human Androgen Receptor Binding (%) RBA R1881 = 100” value on Human Androgen Receptor (Table 2) amounted to 4.5%.
As for `CC(C)S(=O)(=O)c1ccc(OCCCN2C(=S)N(c3ccc(C#N)c(C(F)(F)F)c3)C(=O)C2(C)C)cc1` [EM-8131], the inhibition in vivo at 0.5 mg in experiment [1] (setting [11]) was determined as 47%; in experiment [1] (setting [12]) it was 84%; in experiment [1] (setting [13]) it was 47%. In experiment [2] (setting [6]), the IC50 stood at 9.1 nM. Besides, on Human Androgen Receptor (Table 1), the “Human Androgen Receptor Binding (%) RBA R1881 = 100” value worked out at 9.3%.
For the compound `CC(C)Sc1ccc(OCCCN2C(=S)N(c3ccc(C#N)c(C(F)(F)F)c3)C(=O)C2(C)C)cc1` [EM-8132], the inhibition in vivo at 0.5 mg was found to be 67% in experiment [1] (setting [11]), 86% in experiment [1] (setting [12]) and 47% in experiment [1] (setting [13]). Besides, the IC50 in experiment [2] (setting [6]) was determined as 24 nM. Besides, on Human Androgen Receptor (Table 1), the “Human Androgen Receptor Binding (%) RBA R1881 = 100” value was 1.0%.
The corresponding values for `CC1(C)C(=O)N(c2ccc(C#N)c(C(F)(F)F)c2)C(=S)N1CCCOc1ccc2c(c1)OCC2=O` [EM-8154] are 41%, 42%, 11%, 17.1 nM and 72.4%.
The like results for `CC1(C)C(=O)N(c2ccc(C#N)c(C(F)(F)F)c2)C(=S)N1CCCOc1ccc(C(N)=O)cc1` [EM-8156] were, in that order, 47%, 65%, 32%, 7.9 nM and 17.5%.
As for `COC1(CCOc2ccc(CN3CCCC3)cc2C)CCN(c2ccc(C#N)c(C(F)(F)F)c2)CC1` [EM-8157], the values for the inhibition in vivo at 0.5 mg in experiment [1] (setting [7]), in experiment [1] (setting [8]) and in experiment [1] (setting [9]) were 28%, 25% and 56%, respectively. Also, in experiment [2] (setting [10]), the 50% inhibitory concentration (IC50) turned out to be 54.3 nM. At Human Androgen Receptor (Table 2), the “Human Androgen Receptor Binding (%) RBA R1881 = 100” value is recorded as less than 1.0%.
Regarding `CC1(C)C(=O)N(c2ccc(C#N)c(C(F)(F)F)c2)C(=S)N1CCCOc1ccc2oc(=O)ccc2c1` [EM-8158], the inhibition in vivo at 0.5 mg is 32% in experiment [1] (setting [11]), 70% in experiment [1] (setting [12]) and 38% in experiment [1] (setting [13]). For the same compound, in experiment [2] (setting [6]), the half-maximal inhibitory concentration (IC50) was 3.5 nM. Moreover, the “Human Androgen Receptor Binding (%) RBA R1881 = 100” value at Human Androgen Receptor (Table 1) was determined as 88.8%.
On to `CS(=O)(=O)c1ccc(OCCC2(O)CCN(c3ccc(C#N)c(C(F)(F)F)c3)CC2)cc1` [EM-8159], for which the inhibition in vivo at 0.5 mg stood at 23% in experiment [1] (setting [7]), 24% in experiment [1] (setting [8]) and 51% in experiment [1] (setting [9]). In addition, the IC50 in experiment [2] (setting [10]) came out at 33.4 nM. Further, the “Human Androgen Receptor Binding (%) RBA R1881 = 100” value at Human Androgen Receptor (Table 2) is reported as less than 1.0%.
